Data published in paper PMC10766610, “DCAF1-based PROTACs with activity against clinically validated targets overcoming intrinsic- and acquired-degrader resistance” (Nature Communications, 2024).
Like-named read-outs stand apart in the source and are kept apart here. One block for each molecule: values may come before it.

Assays:
[1] = target: T1, BRD9 (Homo sapiens, UniProt Q9H8M2); test: Rescue of DBr-1 mediated BRD9 degradation by co-treatment, BRD9-HiBiT HEK293 cells; format: cell-based; design: host or cells: HEK293/BRD9-HiBiT knock-in; clone and BRD9-HiBiT/CAS9/FF clone; conditions: (13) 1 µM, OICR8268 10 µM, BI-9564 10 µM
T1 sequence (Q9H8M2 1-597): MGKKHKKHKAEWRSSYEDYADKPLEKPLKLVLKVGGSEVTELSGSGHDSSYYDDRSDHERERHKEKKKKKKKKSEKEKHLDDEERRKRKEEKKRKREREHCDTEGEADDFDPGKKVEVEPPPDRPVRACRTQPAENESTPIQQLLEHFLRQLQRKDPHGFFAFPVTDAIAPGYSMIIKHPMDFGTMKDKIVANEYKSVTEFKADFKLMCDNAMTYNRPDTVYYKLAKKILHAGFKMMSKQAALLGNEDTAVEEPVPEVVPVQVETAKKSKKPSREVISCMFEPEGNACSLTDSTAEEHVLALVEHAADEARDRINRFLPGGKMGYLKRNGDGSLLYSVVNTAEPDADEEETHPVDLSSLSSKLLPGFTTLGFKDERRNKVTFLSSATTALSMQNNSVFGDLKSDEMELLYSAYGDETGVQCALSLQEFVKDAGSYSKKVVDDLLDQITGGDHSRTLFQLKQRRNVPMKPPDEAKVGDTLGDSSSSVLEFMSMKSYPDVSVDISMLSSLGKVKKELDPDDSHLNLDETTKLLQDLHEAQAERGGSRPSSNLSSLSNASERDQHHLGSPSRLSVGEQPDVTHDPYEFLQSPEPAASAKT
Protocol: Supplementary figure 4. Competition experiments with DBr-1 and DBr-1-N […]
a) BRD9-HiBiT signal detection of samples pretreated with either DMSO, 10µM OICR-8268, 1µM […]
Data represents average ± standard deviation from n=3 replicates. DC50 values and […]
maximal observed degradation are shown below. […]
b) Cell titer Glow assay of BRD9 HiBiT cells. Cells pretreated with either DMSO, 10µM OICR-8268, […]
Data represents average ± standard deviation from n=3 replicates.
(§1) Source data are provided as a Source Data file

[2] = target: T1, BRD9; test: Immunoblot of BRD9 in HEK293 BRD9-HiBiT/FF/CAS9 cells; format: cell-based; design: host or cells: HEK293/BRD9-HiBiT knock-in; clone and BRD9-HiBiT/CAS9/FF clone; conditions: 1000 nM, 6 h
Protocol: Whole cell lysates for immunoblotting were prepared by pelleting cells at 4 °C (300 g) for 3 min. Cell pellets were then washed 1x with PBS and resuspended in RIPA lysis buffer (VWR, cat # 97063-270) supplemented with protease (Thermo Scientific, cat # A32955) and phosphatase (Thermo Scientific, cat # A32957) inhibitor tablets. Lysates were clarified at 16,000 × g for 15 min at 4 °C prior to quantification by Lowry assay (Bio-Rad cat # 5000113 and cat # 5000114). Whole-cell lysates were loaded into 4–20% Criterion TGX Precast 18 well gels (Bio-Rad, cat # 5671094) and separated by electrophoreses at 120 V for 1 h. The gels were transferred to a nitrocellulose membrane using the Trans-Blot Turbo (Bio-Rad) for 7 min and then blocked for 1 h at room temperature in Odyssey blocking buffer (LICOR Biosciences, cat # 927-50000). Membranes were probed with the appropriate primary antibodies (diluted 1:1000) overnight at 4 °C in 20% Odyssey blocking buffer in 1x TBST. Membranes were washed three times with 1x TBST (5 min per wash), and then incubated with IRDye goat anti-mouse (LICOR, cat # 926-32210) or goat anti-rabbit (LICOR, cat # 926-32211) secondary antibody diluted 1:10,000 in 20% Odyssey blocking buffer for 1 h at room temperature. After three 5-min washes with 1x TBST, the immunoblots were visualized using the ODYSSEY Infrared Imaging System (LICOR). Alternatively, SDS-PAGE resolved proteins were transferred to a PVDF membrane using a wet blotting system (Invitrogen). Membranes were blocked in 5% Milk-PBS-Tween 20 for 1 h and incubated with primary antibody over night at 4 °C. Secondary antibodies (secondary antibody: anti-rabbit, goat pAb to Rb-IgG (Abcam, #7090); secondary antibody: anti-mouse, sheep IgG HRP-linked (GE healthcare, #NA931V)) were incubated for 1 h at room temperature (RT) before blots were developed on film using the detection kit SuperSignal West Femto Maximum Sensitivity Substrate (Thermo Fisher, #34096).

[3] = target: T1, BRD9; test: Capillary western of BRD9 in 768-O cells; format: cell-based; conditions: 768-O cells lacking VHL expression
Protocol: Protein peaks were analyzed using Compass for Simple Western version 5.0.1 (ProteinSimple), area under the curve for both α-tubulin ([…]) and BRD9 (90 kDa) per capillary was extracted and BRD9 area was normalized to α-tubulin area on a per-capillary basis before each sample was normalized to the DMSO for each run of three triplicates.

[4] = target: T2, BRD7 (Homo sapiens, UniProt Q9NPI1); test: BRD7-HiBiT protein abundance luminescence assay in HEK293 cells
T2 sequence (Q9NPI1 1-651): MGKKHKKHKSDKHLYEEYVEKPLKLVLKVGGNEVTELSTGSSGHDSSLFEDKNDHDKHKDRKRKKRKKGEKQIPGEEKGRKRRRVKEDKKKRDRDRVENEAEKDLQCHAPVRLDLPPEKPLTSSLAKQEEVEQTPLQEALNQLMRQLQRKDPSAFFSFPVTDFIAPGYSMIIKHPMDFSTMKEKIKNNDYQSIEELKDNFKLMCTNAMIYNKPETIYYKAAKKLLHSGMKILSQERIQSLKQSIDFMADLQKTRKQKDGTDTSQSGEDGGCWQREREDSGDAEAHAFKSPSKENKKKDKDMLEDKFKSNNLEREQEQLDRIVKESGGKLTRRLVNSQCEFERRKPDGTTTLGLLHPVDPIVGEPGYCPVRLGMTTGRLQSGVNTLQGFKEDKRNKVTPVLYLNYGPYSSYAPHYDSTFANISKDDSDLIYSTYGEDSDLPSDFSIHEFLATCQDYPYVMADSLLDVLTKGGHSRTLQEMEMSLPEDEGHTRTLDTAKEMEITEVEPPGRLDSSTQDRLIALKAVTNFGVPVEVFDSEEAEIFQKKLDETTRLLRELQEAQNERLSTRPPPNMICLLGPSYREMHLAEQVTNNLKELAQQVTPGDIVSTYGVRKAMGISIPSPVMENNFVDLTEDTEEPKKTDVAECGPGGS
Excerpt: HEK293/BRD9-HiBiT pools (PROMEGA # CS3023120) and HEK293/BRD7-HiBiT pools (PROMEGA # CS3023124) were purchased from Promega. We performed clonal selection for HEK293/BRD9-HiBiT cell line using single-cell sorting and screening for HiBiT expression using Nano-Glo HiBiT Lytic Detection System (Promega # N3030). The HEK293/BRD9-HiBiT clone and HEK293/BRD7-HiBiT pool to perform standard HiBiT assays.

[5] = tested on: TMD8 WT and TMD8 CRBN resist. cells; test: CellTiter-Glo viability, TMD8 WT vs CRBN resist. cells; format: cell-based, human; conditions: CellTiter-Glo proliferation
Protocol: TMD8 cells were grown in the presence of a CRBN-BTK PROTAC CBt using a gradual dose increase. Start treatment was 0.1 nM for 6 weeks, followed by 3 weeks at 0.4 nM and another 4 weeks at 10 nM to finally obtain CBt resistant TMD8 cells (TMD8 CRBN resist.).
d) Viability measured by cell titer-Glo for DBt-10 (green) vs (13) (purple) in WT (solid) vs CRBN resist.
(dotted) TMD8 cells. Data represents average ± standard deviation from n=3 replicates.
e) Repeat of the viability measured by cell titer-Glo for DBt-10 (green) vs (13) (purple) in WT (solid) vs
CRBN resist. (dotted) TMD8 cells with adjusted dose response range. Data represents average ±
standard deviation from n=3 replicates.
as §1

[6] = Viability by FSC/SSC gate (flow cytometry) in TMD8 BTK-GFP/mCh cells; format: cell-based, human; design: Max dose w/ Gating Viability >25%: unit: µM; conditions: human, TMD8 BTK-GFP/mCh cells, TMD8 BTK-GFP/mCh, 24 h
Protocol: (§2) For flow cytometry measurements, 25,000 exponentially growing TMD8 BTK-GFP/mCh cells were plated in 100 μL of each well of a 96-well plate and grown for 24 h. Cells were then dosed with corresponding compounds and doses from 10 mM DMSO stock for 24 h, after which GFP and mCherry fluorescence was read with a Beckmann Coulter Cytoflex. For competition experiment, both compounds were added at the same time and dosed for 24 h. Cells were gated based on Forward & Side Scatter and selection for Single cells using SSC-A vs. SSC-H. Further, the population of viable cells was defined by the forward & side-scatter characteristics of DMSO-treated cells. […] Effects on viability were measured by the reduction of the percentage of cells included in this viable-population gate with increasing doses of compound tested. Degradation of BTK was calculated based on subtracting background (BG) fluorescence of parental TMD8 signal via (GFP-BG)/(mCherry-BG) of viable cells. Median ratios of three technical (different wells) replicates were used to calculate daily averages. Each compound dose–response was generated via three biological replicates (different days of experiment). Degradation curve parameters (DC50 & Abs. DC50 & max. Deg) were extracted using GraphPad Prism’s 4-parameter logistic curve fitting.
(§3) The viability window was determined by measuring the GI50 of viability based on the percentage of cells included in the viable gate and comparing it to the DC50 of degradation. The fold-change difference describing this window is [GI50 Viability / DC50 Degradation], where values above 1 indicate a positive (lower DC50 degradation than AC50 viability) window.

[7] = tested on: TMD8 BTK-GFP/mCh cells; test: as above; format: cell-based, human; design: Max dose w/ Gating Viability >25%: unit: µM; conditions: TMD8 BTK-GFP/mCh, 24 h
Protocol: as §2, §3

[8] = target: BTK (Homo sapiens, UniProt Q06187); test: BTK-GFP degradation by flow cytometry in TMD8 BTK-GFP/mCh cells; format: cell-based; design: performed with full-length BTK and endogenous DCAF1; expressed in transfected cells; host or cells: TMD8 cells, lentiviral, blasticidin-selected (TMD8 BTK-GFP/mCh); conditions: TMD8 BTK-GFP/mCh, 24 h; for DC50: read-out: DC50 BTK-Degradation
Chain of BTK (Q06187 2-659 limits assumed): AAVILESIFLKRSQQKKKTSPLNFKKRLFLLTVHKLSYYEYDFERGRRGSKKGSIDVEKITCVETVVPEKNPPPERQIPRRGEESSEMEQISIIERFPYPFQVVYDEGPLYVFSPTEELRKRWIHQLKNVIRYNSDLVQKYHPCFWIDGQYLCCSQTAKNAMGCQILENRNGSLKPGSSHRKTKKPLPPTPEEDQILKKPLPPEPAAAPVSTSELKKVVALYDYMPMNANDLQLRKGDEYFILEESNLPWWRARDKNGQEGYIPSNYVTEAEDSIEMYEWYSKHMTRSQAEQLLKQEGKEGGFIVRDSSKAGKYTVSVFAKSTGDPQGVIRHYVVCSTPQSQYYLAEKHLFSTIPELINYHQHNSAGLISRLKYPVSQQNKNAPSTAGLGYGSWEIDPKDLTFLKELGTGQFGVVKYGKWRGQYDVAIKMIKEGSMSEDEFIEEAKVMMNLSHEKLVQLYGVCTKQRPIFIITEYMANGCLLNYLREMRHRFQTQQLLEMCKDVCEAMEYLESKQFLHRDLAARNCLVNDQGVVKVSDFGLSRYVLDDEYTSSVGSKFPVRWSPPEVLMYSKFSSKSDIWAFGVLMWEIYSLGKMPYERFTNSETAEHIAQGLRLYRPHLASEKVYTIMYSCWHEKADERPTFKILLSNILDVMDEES
Protocol: The bicistronic pLenti6 BTK-GFP-chysel-mCHERRY expression vector was cloned as described[92] using Gateway cloning with a pENTR-BTK plasmid lacking a STOP codon. TMD8 cells were then infected with lentiviral particles from this vector as described above and stably transfected cells were selected with blasticidin at a concentration of 10 μg/mL referred to as TMD8 BTK-GFP/mCh cells.
For flow cytometry measurements, 25,000 exponentially growing TMD8 BTK-GFP/mCh cells were plated in 100 μL of each well of a 96-well plate and grown for 24 h. Cells were then dosed with corresponding compounds and doses from 10 mM DMSO stock for 24 h, after which GFP and mCherry fluorescence was read with a Beckmann Coulter Cytoflex. For competition experiment, both compounds were added at the same time and dosed for 24 h. Cells were gated based on Forward & Side Scatter and selection for Single cells using SSC-A vs. SSC-H. Further, the population of viable cells was defined by the forward & side-scatter characteristics of DMSO-treated cells. To confirm cells outside of this population as non-viable, cells were plated and treated for 24 h, washed with PBS and stained for 30 min with two markers of early (Annexin-V) and late (LIVE/DEAD) apoptosis. Effects on viability were measured by the reduction of the percentage of cells included in this viable-population gate with increasing doses of compound tested. Degradation of BTK was calculated based on subtracting background (BG) fluorescence of parental TMD8 signal via (GFP-BG)/(mCherry-BG) of viable cells. Median ratios of three technical (different wells) replicates were used to calculate daily averages. Each compound dose–response was generated via three biological replicates (different days of experiment). Degradation curve parameters (DC50 & Abs. DC50 & max. Deg) were extracted using GraphPad Prism’s 4-parameter logistic curve fitting.

effect of co-treatment on DBr-1 mediated BRD9 degradation [1]: fully rescue the BRD9 degradation
BRD9 protein reduction by individual binders [2]: No BRD9 protein reduction
SMILES: COc1cc(-c2cn(C)c(=O)c3cnccc23)c(OC)cc1CN(C)C [BI-9564, reference compound]

SMILES: NC(=O)C[C@H](NC(=O)c1c[nH]nc1-c1ccc(Cl)cc1F)c1ccc(F)c(Cl)c1 [OICR-8268]
effect of co-treatment on DBr-1 mediated BRD9 degradation [1]: did not affect the degradation efficacy of DBr-1

BRD9 levels in 768-O cells [3]: intrinsic resistance
maximal observed degradation (BRD7), % in brackets ([4]; 2 h): 21%
DC50 ([4]; read-out: rel. DC50 (BRD7), 2 h): 0.137 µM
SMILES: COc1cc(-c2cn(C)c(=O)c3cnccc23)cc(OC)c1CN1CCN(CCCCCOc2cc(-c3scnc3C)ccc2CNC(=O)[C@@H]2C[C@@H](O)CN2C(=O)[C@@H](NC(=O)C2(F)CC2)C(C)(C)C)CC1 [VZ185]

SMILES: CCN(CC)Cc1ccc(-c2cc3c(-c4cc(F)cc(NC(=O)c5ccc(C(C)(C)O)cc5F)c4C)ncnc3[nH]2)cc1 [compound 17, reference compound]
relative potency change between CBt sensitive and resistant TMD8 cells [5]: neither inhibitor showed any relative potency change
GI50 at 24 h ([6]; read-out: Abs GI50): 6.82 µM
GI50 at 24 h ([6]; read-out: GI50): 6.75 µM
Max dose w/ Gating Viability >25% [7]: 5.39
DC50 [8]: > 25 µM

SMILES: Cc1c(NC(=O)c2ccc(C(C)(C)O)cc2F)cc(F)cc1-c1ncnc2[nH]c(-c3ccc(CN4CCC5(CCNCC5)CC4)cc3)cc12 [compound 18, reference compound]
GI50 at 24 h ([6]; read-out: Abs GI50): 9.54 µM
GI50 at 24 h ([6]; read-out: GI50): 7.56 µM
Max dose w/ Gating Viability >25% [7]: 25
DC50 [8]: 7.89 µM

SMILES: Cc1c(NC(=O)N2CC(O)(CC(C)(C)C)C2)cc(F)cc1-c1ncnc2[nH]c(-c3cnn(CC(=O)N4CCC5(CCNCC5)CC4)c3)cc12 [compound 19]
GI50 at 24 h ([6]; read-out: GI50): > 25 µM
Max dose w/ Gating Viability >25% [7]: 25
max. BTK degradation (%) [8]: 0%
DC50 [8]: > 25 µM

SMILES: C=CC(=O)N1CCC[C@@H](n2nc(-c3ccc(Oc4ccccc4)cc3)c3c(N)ncnc32)C1 [ibrutinib]
relative potency change between CBt sensitive and resistant TMD8 cells [5]: neither inhibitor showed any relative potency change
